In US9029110B2, “Method for producing functional microbially fermented tea extract containing polyphenol derivative” (Kabushiki Kaisha Riverson, priority 2009, dated 2015):

How the values were obtained:
[1] = system: 3T3-L1 adipocytes; assay: Adiponectin secretion promoting effect, Western blotting of culture supernatant; type: cell-based; details: for amount of adiponectin secreted (Mean, DMSO control = 100.00): differentiated 3T3-L1 adipocytes, 3 runs
Procedure: (§1) 3T3-L1 adipocytes can be allowed to grow and maintained in a 5% CO2 environment in high-glucose DMEM containing 50 U/ml penicillin, 50 μg/ml streptomycin, and 10% FCS. The 3T3-L1 cells were subcultured in a dish of 3.5 cm in diameter until confluent and then sufficiently differentiated into adipocytes by culture for another 2 days in the presence of insulin (10 μg/ml), dexamethasone (0.25 μM), and IBMX (3-isobutyl-1-methylxanthine) (0.5 mM). Teadenol A (10 μM) or DMSO (vehicle control) was added to the sufficiently differentiated 3T3-L1 adipocytes, and each culture supernatant was collected after 8, 24, 32, and 48 hours. The amount of adiponectin secreted was determined by Western blotting method.

[2] = system: PTP1B; assay: PTP1B expression inhibitory effect, Western blotting; type: cell-based
Procedure: as §1
Teadenol A (10 μM) or DMSO (vehicle control) was added to the sufficiently differentiated 3T3-L1 adipocytes. After culture for 8, 24, 32, and 48 hours, the cells were collected, and the amount of PTP1B […] and the amount of α-tubulin were determined by Western blotting method.

[3] = Test of the functions of decreasing visceral fat and increasing adiponectin (method not described); details: as a result of the test, no data shown
[4] = stated as 'can be confirmed', no data shown

SMILES | amount of adiponectin secreted (Mean, DMSO control = 100.00) ([1]; 10 μM, 8 h) | amount of adiponectin secreted (Mean, DMSO control = 100.00) ([1]; 10 μM, 24 h) | amount of adiponectin secreted (Mean, DMSO control = 100.00) ([1]; 10 μM, 32 h) | amount of adiponectin secreted (Mean, DMSO control = 100.00) ([1]; 10 μM, 48 h) | adiponectin secretion promoting activity ([1]; statistically significant difference in the samples after 24 and 48 hours, 10 μM) | PTP1B expression inhibitory activity ([2]; statistically significant difference in the samples after 32 hours, 10 μM, 3T3-L1 adipocytes) | function on adiponectin [3] | function on visceral fat [3] | adiponectin secretion promoting effect [1, 4] | PTP1B expression inhibitory effect [2, 4]
C=C1C=C(C(=O)O)O[C@@H]2Cc3c(O)cc(O)cc3O[C@H]12 [Teadenol A, teadenol A] | 166.00 | 214.67 | 153.33 | 147.67 | effective | effective | increasing adiponectin | decreasing visceral fat | – | –
C=C1C=C(C(=O)O)O[C@@H]2Cc3c(O)cc(O)cc3O[C@@H]12 [Teadenol B, teadenol B] | – | – | – | – | – | – | – | – | effective | effective
